Experimental data as given in patent publication US20220119355A1, “SATURATED-RING-FUSED DIHYDROPYRIMIDINONE OR DIHYDROTRIAZINONE COMPOUNDS AND PHARMACEUTICAL USE THEREOF” (Japan Tobacco Inc., priority 2018, published 2022).

Experiments:
human RORγ = biological target: T1, human RORγ (Homo sapiens, UniProt P51449); assay: In-vitro reporter gene assay for inhibitory activity against RORγ transcription, Test Method B (pFA/hRORγ LBD / pG5-Luc in CHO cells); assay type: cell-based; conditions: luciferase reporter, CHO cells, 2 days
T1 construct: from Ser253 to Lys518 for human RORγ; expressed in transfected cells; host or cells: CHO cells (transient co-transfection with pG5-Luc)
T1 sequence (P51449 253-518): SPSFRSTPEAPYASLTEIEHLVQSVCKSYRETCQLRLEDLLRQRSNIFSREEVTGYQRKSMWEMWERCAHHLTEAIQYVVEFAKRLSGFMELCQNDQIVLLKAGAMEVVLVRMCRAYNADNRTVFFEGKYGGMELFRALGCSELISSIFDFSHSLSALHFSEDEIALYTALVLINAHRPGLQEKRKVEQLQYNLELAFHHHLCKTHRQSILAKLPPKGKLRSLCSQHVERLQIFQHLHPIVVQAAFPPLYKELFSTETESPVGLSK
Method: (§1) In-Vitro Assay for Inhibitory Activity Against RORγ Transcription
(§2) Inhibitory activity against RORγ transcription was assessed for test compounds by either of the following Test Method A or B of reporter gene assay.
(§3) cDNAs encoding human and mouse RORγ ligand binding domains (LBD) were obtained based on the sequences of human RORγ (Genbank registered number NM_005060.3) and mouse RORγ (Genbank registered number NM_011281.2) (LBD sequences: from Ser253 to Lys518 for human RORγ; from Ile251 to Lys516 for mouse RORγ).
(§4) LBD cDNAs of human and mouse RORγ were inserted into pFA-CMV vector (Agilent Technologies, Inc.), which expresses GAL4-DNA binding domain fusion protein. The resulting plasmids are hereinafter referred to as pFA/hRORγ plasmid and pFA/mRORγ plasmid, respectively.
(§5) pFA/hRORγ plasmid or pFA/mRORγ plasmid was transiently co-transfected into Chinese hamster ovary cells (CHO cells) with pG5-Luc (Promega), reporter plasmid expressing firefly luciferase in a GAL4-dependent manner.
(§6) TransIT (Registered trademark) CHO Transfection Kit (Mirus) was used to co-transfect CHO cells with the plasmids. One day prior to the assay, CHO cells were suspended in HAM F-12 Nutrient medium containing 10% (v/v) fetal bovine serum and seeded at 5.5×10^6 cells per 225 cm^2 cell culture flask each. 72 μL of TransIT (Registered trademark) CHO reagent was added into a 2 mL tube containing 1.55 mL of Opti-MEM, and then mixed and incubated at room temperature for 10 minutes. 50.4 μL of a plasmid solution containing 300 ng of pFA/hRORγ plasmid, 12000 ng of pG5-Luc plasmid, and 11700 ng of pcDNA3.1 plasmid were added into the tube and mixed gently. In the case of mouse assay, a plasmid solution containing 300 ng of pFA/mRORγ plasmid, 12000 ng of pG5-Luc plasmid, and 11700 ng of pcDNA3.1 plasmid was added, instead. The mixture was incubated at room temperature for 10 minutes. 12 μL each of CHO Mojo Reagent were then added into each tube and mixed gently. The mixture was incubated at room temperature for 10 minutes. The resulting transfection reagent was applied to the cell culture. After incubation at 37° C., 5% CO2 for 4 hours, the plasmid-transfected CHO cells were harvested by trypsin treatment. The collected cells were resuspended in culture medium and plated into a 384-well-white plate at 8,000 cells/35 μL/well. The plate was let stand at room temperature for 1 hour and then further incubated at 37° C., 5% CO2 for 3 hours. A test compound was dissolved in dimethyl sulfoxide (DMSO) to obtain a concentration of 10 mM. Each solution was serially diluted with DMSO and further diluted with culture medium just before use. The test compound solutions were added to the cells in the plate at 6 different concentrations. The final concentration of DMSO was 0.2% (v/v). After the addition of test compound, the cells were incubated at 37° C., 5% CO2 for 2 days.
(§7) RORγ transcriptional activity was detected as the intracellular luciferase activity using SteadyLite HTS Reporter Gene Assay System (Perkin Elmer). SteadyLite Reagent was diluted 2.5-fold with Extension buffer (10 mM Tricine, 0.2% (w/v) bovine serum albumin, 0.02% (v/v) Tween-20) to obtain a luciferase substrate solution. Two days after the addition of test compound, 40 μL each of the luciferase substrate solution was added into the 384-well-plate. After the incubation at room temperature for 10 minutes, luminescence of each well was measured with a microplate reader. The luciferase activity derived from the luminescence count in a vehicle-control well treated with 0.2% DMSO alone was defined as 100%, and the luciferase activity after treatment of the test compound was calculated as a percentage, %-of-control, based on the value of the vehicle-control. An EC50 value of the test compound was calculated by curve fitting. The luminescence counts at the concentration of test compound where cytotoxicity was observed were excluded from data analysis. […]

mouse RORγ = biological target: T2, mouse RORγ (Mus musculus, UniProt P51450); assay: In-vitro reporter gene assay for inhibitory activity against RORγ transcription, Test Method B (pFA/mRORγ LBD / pG5-Luc in CHO cells); assay type: cell-based; conditions: luciferase reporter, CHO cells, 2 days
T2 construct: from Ile251 to Lys516 for mouse RORγ; expressed in transfected cells; host or cells: CHO cells (transient co-transfection with pG5-Luc)
T2 sequence (P51450 251-516): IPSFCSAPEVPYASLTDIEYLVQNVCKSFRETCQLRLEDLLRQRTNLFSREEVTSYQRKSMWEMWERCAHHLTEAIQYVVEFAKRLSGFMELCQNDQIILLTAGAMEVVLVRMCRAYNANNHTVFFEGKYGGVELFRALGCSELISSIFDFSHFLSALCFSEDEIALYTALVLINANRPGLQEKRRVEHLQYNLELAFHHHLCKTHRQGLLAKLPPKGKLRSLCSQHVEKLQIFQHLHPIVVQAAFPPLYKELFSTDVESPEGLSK
Method: as §1, §2, §3, §4, §5, §6, §7

[1] = Non Patent Literature 33; cited from earlier work

## C[C@H]1CCC2(c3ccc(C4C(C(C)(C)C)C4(F)F)c(Cl)c3)NC(=O)N(C34CCC(C(=O)O)(C3)C4)C=C2[C@@H]1C (single isomer, unassigned) [Example 115]
Human RORγ
  EC50: 0.031 µM
Mouse RORγ
  EC50: 0.049 µM

## C[C@H]1CCC2(c3ccc(C4C(C(C)(C)C)C4(F)F)c(Cl)c3)NC(=O)N(C34CCC(C(=O)O)(C3)C4)C=C2[C@@H]1C (single isomer, unassigned) [Example 116]
Human RORγ
  EC50: 0.044 µM
Mouse RORγ
  EC50: 0.101 µM

## CC1C2=CN(C34CC(C(=O)O)(C3)C4)C(=O)N[C@@]2(c2ccc(CCC(C)(C)C)c(Cl)c2)CCC1(C)C (single isomer, unassigned) [Example 117]
Human RORγ
  EC50: 4.68 µM
Mouse RORγ
  EC50: 5.3 µM

## CC1C2=CN(C34CC(C(=O)O)(C3)C4)C(=O)N[C@]2(c2ccc(CCC(C)(C)C)c(Cl)c2)CCC1(C)C (single isomer, unassigned) [Example 118]
Human RORγ
  EC50: 0.033 µM
Mouse RORγ
  EC50: 0.082 µM

## CC1C2=CN(C34CCC(C(=O)O)(C3)C4)C(=O)N[C@@]2(c2ccc(CCC(C)(C)C)c(Cl)c2)COC1(C)C (single isomer, unassigned) [Example 119]
Human RORγ
  EC50: > 10 µM
Mouse RORγ
  EC50: > 10 µM

## CC1C2=CN(C34CCC(C(=O)O)(C3)C4)C(=O)N[C@]2(c2ccc(CCC(C)(C)C)c(Cl)c2)COC1(C)C (single isomer, unassigned) [Example 120]
Human RORγ
  EC50: 0.013 µM
Mouse RORγ
  EC50: 0.02 µM

## CC1C2=CN(C34CCC(C(=O)O)(C3)C4)C(=O)N[C@]2(c2ccc(CCC(C)(C)C)c(Cl)c2)COC1(C)C (single isomer, unassigned) [Example 121]
Human RORγ
  EC50: 0.035 µM
Mouse RORγ
  EC50: 0.04 µM

## CCS(=O)(=O)c1ccc(CC(=O)Nc2cc(Cl)c(-c3ccccc3OC(F)(F)F)c(Cl)c2)cc1 [GSK805]
[1]
  bone loss in experimental periodontitis model: diminished bone loss
